Measured values from patent US7652006B2, “Substituted 1(2H)-phthalazinones and pharmaceutical compositions thereof” (Euro-Celtique S.A., priority 1998, dated 2010).
pIC50: −log10 of the molar value. Counter-ions that a name gives are not always drawn. Like-named read-outs stand apart in the source and are kept apart here.

Assays:
AMPA receptors = test: electrophysiological assay, AMPA receptors expressed in oocyte; type: cell-based, rat; conditions: inhibiting or modulating AMPA receptors expressed in oocyte, read-out: AMPA IC50
Description: The compounds of the present invention may be assessed by electrophysiological assays in Xenopus oocytes expressing rat whole brain poly(A)^+ RNA (see Keana et. al. J. Med. Chem. 38: 4367-4379 (1995)) or in cultured rat cortical neurons (see Woodward et. al. Mol. Pharmacol. 47: 568-581 (1995)) for AMPA receptor activity. Compounds which are useful for treating or preventing the adverse consequences of stroke, hypoglycemia, neurodegenerative disorders, anxiety, epilepsy or psychosis, or which induce analgesia, will inhibit the currents across the membranes of the oocyte expressing AMPA receptors. However, if the compound potentiates currents across the oocyte membrane, then the compound is expected to be useful in enhancing cognition or treating schizophrenia or neurodegenerative disease such as Parkinson's Disease.
The potency of antagonism or potentiation for these compounds were determined by electrophysiological assay. Potencies of selective compounds described above in inhibiting or modulating AMPA receptors expressed in oocyte and their anticonvulsant activity against maximal electroshock induced convulsion are shown in Table 1.

[1] = tested on: maximal electroshock induced convulsion; test: Maximal Electroshock-induced Seizure (MES) test; type: in vivo, mice; conditions: iv, anticonvulsant activity against maximal electroshock induced convulsion; for ED50: Mus musculus
Description: The compounds of the present invention may be tested for […] anticonvulsant activity after iv or ip injection using a number of anticonvulsant tests in mice (audiogenic seizure model in DBA-2 mice. pentylenetetrazol-induced seizures in mice, maximum electroshock seizure test (MES)). The anticonvulsant activity of the AMPA antagonists may be evaluated in the Maximal Electroshock-induced Seizure (MES) test. Seizures are induced by application of current (50 mA, 60 pulses/sec, […], 1 sec duration, d.c.) through saline-coated corneal electrodes using a Ugo Basile ECT device (Model 7801). […] A tonic seizure is defined as a hindlimb extension in excess of 90 degrees from the plane of the body. Results are treated in a quintal manner. The potency of antagonism or potentiation for these compounds were determined by electrophysiological assay. Potencies of selective compounds described above in inhibiting or modulating AMPA receptors expressed in oocyte and their anticonvulsant activity against maximal electroshock induced convulsion are shown in Table 1.

Row | melting point [°C] | pIC50 (AMPA receptors) | SMILES | ED50 [1] [mg/kg] | other results
1 | 253 to 255 |  | Cn1c(=O)nc(-c2ccccc2)c2cc3c(cc21)OCO3 |  | 
2 | 225 to 230 |  | c1ccc(-c2nc(-c3ccc4c(c3)OCO4)c3cc4c(cc3n2)OCO4)cc1 |  | 
3 | 220 to 225 | 6.70 | CN(C)CCn1c(=O)nc(-c2ccc3c(c2)OCCO3)c2cc3c(cc21)OCO3 [1-(2-(dimethylamino)ethyl)-6,7-methylenedioxy-4-(3,4-ethylenedioxyphenyl)-quinazolin-2(1H)-one] | 1 | 
4 | 235 to 240 | 5.15 | C#CCn1c(=O)nc(-c2ccc3c(c2)OCO3)c2cc3c(cc21)OCO3 [1-(2-Propynyl)-6,7-methylenedioxy-4-(3,4-methylenedioxyphenyl)quinazolin-2(1H)-one] |  | 
5 |  | 5.96 | CCn1c(=O)nc(-c2ccc3c(c2)OCCO3)c2cc3c(cc21)OCO3 [1-Ethyl-6,7-methylenedioxy-4-(3,4-ethylenedioxyphenyl)quinazolin-2(1H)-one] | 3 | 
6 | 147 to 150 | 5.26 | CC(C)n1c(=O)nc(-c2cc3c(cc2Cl)OCO3)c2cc3c(cc21)OCO3 [1-Isopropyl-6,7-methylenedioxy-4-(2-chloro-4,5-methylenedioxyphenyl)quinazolin-2(1H)-one] | 6.2 | 
7 | 243 to 245 | 5.70 | CC(C)n1c(=O)nc(-c2ccc3c(c2)OC(F)(F)O3)c2cc3c(cc21)OCO3 [1-Isopropyl-6,7-methylenedioxy-4-(3,4-difluoromethylenedioxyphenyl)quinazolin-2(1H)-one] |  | 
8 |  | 5.55 | CC(C)n1c(=O)nc(-c2ccc3c(c2)OCO3)c2cc3c(cc21)OCO3 [1-Isopropyl-6,7-methylenedioxy-4-(3,4-methylenedioxyphenyl)quinazolin-2(1H)-one] | 3 | 
9 | 241 to 243 | 4.89 | CC(C)n1c(=O)nc(-c2ccc3ocnc3c2)c2cc3c(cc21)OCO3 [1-Isopropyl-6,7-methylenedioxy-4-(5-benzoxazole)quinazolin-2(1H)-one] |  | 
10 |  | 5.10 | [O-][n+]1c(CCl)nc2cc3c(cc2c1-c1ccc2c(c1)OCO2)OCO3 [2-Chloromethyl-6,7-methylenedioxy-4-(3,4-methylenedioxy-phenyl)quinazoline 3-oxide] | 3.1 | 
11 |  | 5.00 | O=c1c2cc3c(cc2c(-c2ccc4c(c2)OCO4)nn1CCN1CCCC1)OCO3 [2-[2-(1-Pyrrolidinyl)ethyl]-4-(3,4-methylenedioxyphenyl)-6,7-methylenedioxy-1(2H)-phthalazinone] | 3.8 | 
12 | 155 to 160 | 5.15 | Cn1ccnc1SCc1nc(-c2ccc3c(c2)OCO3)c2cc3c(cc2n1)OCO3 [2-[(1-Methyl-2-imidazolyl)thio]methyl-6,7-methylenedioxy-4-(3,4-methylenedioxy-phenyl)quinazoline] |  | 
13 |  | 5.00 | CC(C)n1c(=O)nc(-c2ccc3c(c2)CCO3)c2cc3c(cc21)OCO3 [4-(2,3-Dihydrobenzofuran-5-yl)-1-isopropyl-6,7-methylenedioxyquinazolin-2(1H)-one] | 3.3 | 
14 | 180 to 185 | 4.96 | c1nc(-c2ccc3c(c2)OCO3)c2cc3c(cc2n1)OCO3 [6,7-Methylenedioxy-4-(3,4-methylenedioxyphenyl)quinazoline] |  | 

Continued, compound first:

Row | SMILES | melting point [°C] | pIC50 (AMPA receptors) | ED50 [1] [mg/kg] | other results
15 | CN(C)CCn1c(=O)nc(-c2ccc3c(c2)OCO3)c2cc3c(cc21)OCO3 [1-(2-(dimethylamino)ethyl)-6,7-methylenedioxy-4-(3,4-methylenedioxyphenyl)-quinazolin-2(1H)-one] | 175 to 182 | 6.00 |  | MES ED50 [1]: 1.5 mg/kg
16 | CN(C)CCn1c(=O)nc(-c2ccc3c(c2)OCO3)c2cc3c(cc21)OCO3 [1-(2-(dimethylamino)ethyl)-6,7-methylenedioxy-4-(3,4-methylenedioxyphenyl)quinazolin-2-(1H)-one hydrochloride] |  |  |  | pIC50 (AMPA receptors; hydrochloride): 5.96; MES ED50 ([1]; hydrochloride): 8.1 mg/kg
17 | CCn1c(=O)nc(-c2ccc3c(c2)OCO3)c2cc3c(cc21)OCO3 [1-Ethyl-6,7-methylenedioxy-4-(3,4-methylenedioxyphenyl)quinazolin-2(1H)-one] |  | 5.30 | 3.4 | 
18 | CC(C)n1c(=O)nc(-c2ccc3c(c2)OCO3)c2cc3oc(=O)n(C)c3cc21 [1-Isopropyl-4-(3,4-methylenedioxyphenyl)-8-methyl-7-oxo-oxazol[5,4-g]quinazolin-2(1H)-one] |  | 5.70 | 1.5 | 
19 | CCCn1c(=O)oc2cc3c(-c4ccc5c(c4)OCO5)nc(=O)n(C(C)C)c3cc21 [1-Isopropyl-4-(3,4-methylenedioxyphenyl)-8-propyl-7-oxo-oxazol[5,4-g]quinazolin-2(1H)-one] | 110 to 145 | 5.30 |  | 
20 | CC(C)n1c(=O)nc(-c2ccc3ccccc3c2)c2cc3c(cc21)OCO3 [1-Isopropyl-6,7-methylenedioxy-4-(2-naphthyl)quinazolin-2(1H)-one] | 213 to 215 | 5.70 | 4.5 | 
21 | CC(C)n1c(=O)nc(-c2ccc3c(c2)OCCO3)c2cc3c(cc21)OCO3 [1-Isopropyl-6,7-methylenedioxy-4-(3,4-ethylenedioxyphenyl)-quinazolin-2(1H)-one] | 214 to 217 | 5.74 |  | 
22 | CC(C)n1c(=O)nc(-c2cnc3ccccc3c2)c2cc3c(cc21)OCO3 [1-Isopropyl-6,7-methylenedioxy-4-(3-quinolyl)quinazolin-2(1H)-one] | 279 to 281 | 5.10 |  | 
23 | CC(C)n1c(=O)nc(-c2ccc3c(c2)CCC3)c2cc3c(cc21)OCO3 [1-Isopropyl-6,7-methylenedioxy-4-(5-indanyl)quinazolin-2(1H)-one] | 73 to 75 | 5.30 |  | 
24 | CCN(CC)CCn1c(=O)nc(-c2ccc3c(c2)OCO3)c2cc3c(cc21)OCO3 [1-[2-(diethylamino)ethyl]4-(3,4-methylenedioxyphenyl)-6,7-methylenedioxyquinazolin-2(1H)-one] |  | 5.70 | 5.2 | 
25 | CCOCCn1c(=O)nc(-c2ccc3c(c2)OCO3)c2cc3c(cc21)OCO3 [1-[(2-Ethoxy)ethyl]-6,7-methylenedioxy-4-(3,4-methylenedioxyphenyl)quinazoline-2-one] |  | 5.10 | 10 | 
26 | NCCOc1nc(-c2ccc3c(c2)OCO3)c2cc3c(cc2n1)OCO3 [2-(2-Aminoethoxy)-6,7-methylenedioxy-4-(3,4-methylenedioxyphenyl)quinazoline] | 162 to 167 | 4.92 |  | 
27 | c1cn(CCc2nc(-c3ccc4c(c3)OCO4)c3cc4c(cc3n2)OCO4)cn1 [2-(Imidazol-1-yl)ethyl-6,7-methylenedioxy-4-(3,4-methylenedioxyphenyl)quinazoline] | 160 to 163 | 5.40 | 3.1 | 
28 | [O-][n+]1c(Cn2ccnc2)nc2cc3c(cc2c1-c1ccc2c(c1)OCO2)OCO3 [2-(Imidazol-1-yl)methyl-6,7-methylenedioxy-4-(3,4-methylenedioxyphenyl)quinazoline-3-oxide] |  | 5.30 | 5 | 
29 | CN(C)CCn1nc(-c2ccc3c(c2)OCO3)c2cc3c(cc2c1=O)OCO3 [2-[2-(Dimethylamino)ethyl]-4-(3,4-methylenedioxyphenyl)-6,7-methylenedioxy-1(2H)-phthalazinone] |  | 5.30 | 3.5 | 
30 | c1ncn(Cc2nc(-c3ccc4c(c3)OCO4)c3cc4c(cc3n2)OCO4)n1 [6,7-Methylenedioxy-2-(1,2,4-triazol-1-yl)methyl-4-(3,4-methylenedioxyphenyl)quinazoline] | 195 to 198 | 5.05 |  | 
31 | CN(C)CCOc1nc(-c2ccc3c(c2)OCO3)c2cc3c(cc2n1)OCO3 [6,7-Methylenedioxy-4-(3,4-methylenedioxyphenyl)-2-(2-(dimethylamino)ethoxy)-quinazoline] |  | 5.60 | 4 | 
32 | [O-][n+]1cnc2cc3c(cc2c1-c1ccc2c(c1)OCO2)OCO3 [6,7-Methylenedioxy-4-(3,4-methylenedioxyphenyl)quinazoline 3-oxide] |  | 5.15 | 2.5 | 
33 | CN(C)CCOc1nc(-c2ccc3c(c2)OCO3)c2cc3c(cc2n1)OCO3.Cl [6,7-methylenedioxy-4-(3,4-methylenedioxyphenyl)-2-(2-(dimethylamino)ethoxy)quinazoline hydrochloride] |  |  | 10 | pIC50 (AMPA receptors; hydrochloride): 5.00
